Results as given in article PMC6105827, “Antitrypanosomal 8-Hydroxy-Naphthyridines Are Chelators of Divalent Transition Metals” (Antimicrobial Agents and Chemotherapy, 2018).
Read-outs that look alike come from different tables or passages of the source. Values belong to the compound of their own block, whether it stands above or below them.

Key:
[1] = tested on: T. brucei bloodstream forms; assay: microbe, parasite or virus in culture
Experimental: (§1) The clonal Leishmania donovani cell line LdBOB (derived from MHOM/SD/62/1S-CL2D) was grown as promastigotes at 28°C, as described previously ([53]). Bloodstream-form T. brucei MiTat 1.2 clone 221a and its derived subline, 2T1, were cultured at 37°C in the presence of 5% CO2 in HMI9-T medium, as described previously ([54]). The human carcinoma HepG2 cell line was grown at 37°C with 5% CO2 in minimal Eagle's medium (MEM) with GlutaMAX (1×; Sigma-Aldrich), nonessential amino acids (Sigma-Aldrich), and 10% FBS. Human HepG2 and THP-1 cells used in this study were ethically sourced from the ATCC.
(§2) L. donovani intramacrophage ([7]), HepG2 ([55]), T. brucei ([56]), and L. donovani promastigote ([57]) compound sensitivity assays were carried out as described previously. Human HepG2 and THP-1 cells used in these assays were provided by the ATCC. Data were processed by using GRAFIT (version 5.0.4; Erithacus Software) and fitted to a 2-parameter equation to obtain the effective concentration inhibiting growth by 50% (EC50). Data are presented as the means of results from at least two independent experiments.
(§3) In the first instance, the maximum tolerated concentrations of ZnCl2, CaCl2, CuCl2, MgCl2, MnCl2, and FeCl2 were determined for each cell type. […] Standard drug sensitivity assays were carried out (as described above) for each cell type with compounds 1, 2, and 3 in the presence and absence of the maximum tolerated concentration of metal salt.

THP-1 cells = assay: THP-1 cell sensitivity; format: cell-based; conditions: Homo sapiens
Experimental: as §2

[2] = Spectrophotometric UV-Vis titration and Job's plot of binding to divalent cations; format: physicochemical; conditions: combined concentration 200 μM in methanol; absorbance 475/390/375 nm
Experimental: UV-visible (UV-Vis) titrations were carried out essentially as described previously ([65], [66]). Aliquots of metal divalent cations (concentrated stocks were made initially in water and then diluted in methanol) were added to a fixed concentration of 50 μM 8-HNT compound in methanol. After each aliquot addition, the incubation mixture was left to stabilize for 5 min at 25°C prior to scanning. Wavelength scanning was carried out at between 260 and 510 nm by using a UV-2401 PC UV-Vis spectrophotometer (Shimadzu). For Job's plot analyses ([66]), the combined concentration of 8-HNT and cation was fixed at 200 μM, and only the molar ratio of cation versus 8-HNT compound varied. Changes of the absorption at 475, 390, and 375 nm were indicative of cation complex formation with compounds 1 to 3, respectively. Specific absorbance at these wavelengths was determined and plotted against the molar ratio of compound to cation to determine complex stoichiometry ([66]).

[3] = tested on: L. donovani promastigotes; assay: L. donovani promastigote compound sensitivity assay (with/without metal salts); conditions: for EC50: Leishmania donovani; for Shift: promastigotes; for Tolerated concentration of exogenous metal salt: L. donovani promastigotes
Experimental: as §1, §2, §3

[4] = tested on: L. donovani intramacrophage amastigotes; assay: L. donovani intramacrophage compound sensitivity assay; format: cell-based; conditions: Leishmania donovani; L. donovani intramacrophage amastigotes; ≥3 independent replicates; read-out: Intra-macrophage EC50
Experimental: as §2

[5] = tested on: L. donovani promastigotes; assay: Generation of an 8-HNT-resistant L. donovani cell line; format: cell-based, Leishmania donovani
Experimental: Resistant lines were generated as described previously ([31]), using compound 2 in L. donovani promastigotes. Starting at a sublethal concentration of 1 μM compound 2 in 3 independent cultures, concentrations were increased in a stepwise manner. However, after a total of 270 days in culture, promastigotes were unable to grow in ≥10 μM compound 2.

HepG2 cells = assay: HepG2 compound sensitivity assay (with/without ZnCl2); conditions: for EC50: Homo sapiens
Experimental: as §1, §2, §3

[6] = Cell-free fluorescence-based (FluoZin-3 salt) zinc binding assay; conditions: compounds and DFMO 1 to 100 μM; TPEN 10 μM
Experimental: ZnCl2 (5 μM) was incubated with various concentrations of our three 8-HNT compounds followed by the addition of 125 nM FluoZin-3 salt dye. Reaction mixtures were preincubated for 20 min at RT and then aliquoted into a black 96-well plate. Fluorescence was then measured with a Pherastar spectrophotometer (excitation at 485 nm and emission at 520 nm). Calculations were carried out in Excel.

[7] = tested on: T. brucei bloodstream forms; assay: Intracellular Zn2+ measurement with FluoZin-3 in T. brucei; format: cell-based, Trypanosoma brucei; conditions: 8-HNT compounds 5 μM, TPEN 8 μM
Experimental: (§4) L. donovani promastigotes were grown to 2 × 10^7 cells ml^−1 and harvested by centrifugation (10 min at 1,600 × g). T. brucei bloodstream forms were grown to 2 × 10^6 cells ml^−1 and harvested by centrifugation (5 min at 800 × g). Parasites were washed with PBS and resuspended to a final concentration of 2.5 × 10^7 parasites ml^−1 in fresh PBS. Cells were incubated with FluoZin-3 (final concentration, 5 μM), pluronic acid (final concentration, 5 μM), and 14 mM glucose (T. brucei only). Parasites were incubated for 60 min at room temperature (RT), washed three times with PBS, and then resuspended in PBS (with 14 mM glucose for T. brucei only) before being aliquoted into a black, clear-bottomed 96-well plate (final concentration of 2.5 × 10^7 cells ml^−1). 8-HNT or control compounds were added directly to cells, and fluorescence was measured immediately by using a Pherastar fluorescence spectrophotometer (excitation at 485 nm and emission at 520 nm). Calculations were performed in Excel. […] Parasites were confirmed to be viable by microscopy after the completion of the experiment.

L. donovani = conditions: cited from earlier work
[8] = tested on: L. donovani promastigotes; assay: Intracellular Zn2+ measurement with FluoZin-3 in L. donovani; format: cell-based, Leishmania donovani; conditions: 8-HNT compounds 5 μM, TPEN 8 μM
Experimental: as §4

L. major = tested on: L. major; parameters: method as in PMID 7768775; conditions: cited from earlier work
T. brucei = tested on: T. brucei; parameters: method as in PMID 11849643; conditions: cited from earlier work
[9] = Trypanosoma brucei, read-out: Mean EC50 ± SD, Plus cation, plus CaCl2 (3 mM)
[10] = Trypanosoma brucei, read-out: Mean EC50 ± SD, Plus cation, plus CuCl2 (5 μM)
[11] = Trypanosoma brucei, read-out: Mean EC50 ± SD, Plus cation, plus MgCl2 (1 mM)
[12] = Trypanosoma brucei, read-out: Mean EC50 ± SD, Plus cation, plus MnCl2 (10 μM)
[13] = Trypanosoma brucei, read-out: Mean EC50 ± SD, WT, absence of cation, CaCl2 experiment
[14] = Trypanosoma brucei, read-out: Mean EC50 ± SD, WT, absence of cation, CuCl2 experiment
[15] = Trypanosoma brucei, read-out: Mean EC50 ± SD, WT, absence of cation, FeCl2 experiment
[16] = Trypanosoma brucei, read-out: Mean EC50 ± SD, WT, absence of cation, MgCl2 experiment
[17] = Trypanosoma brucei, read-out: Mean EC50 ± SD, WT, absence of cation, MnCl2 experiment
[18] = Trypanosoma brucei, read-out: Mean EC50 ± SD, WT, absence of cation, ZnCl2 experiment
[19] = Trypanosoma brucei, read-out: T. brucei bsf EC50, bloodstream form (Fig. 1)
[20] = read-out: EC50 values, WT, promastigotes, absence of cation, FeCl2 experiment
[21] = read-out: EC50 values, WT, promastigotes, absence of cation, ZnCl2 experiment
[22] = read-out: L. donovani pro EC50, promastigotes (Fig. 1)
[23] = read-out: EC50 against bloodstream-form T. brucei, substance alone (Fig. S2), mean ± SEM

Compound: [Ca+2].[Cl-].[Cl-] [CaCl2]
Maximum concentration of metal salt having a minimal impact on cell growth ([1]; T. brucei): 3000 µM

Compound: COc1ccccc1-c1nc(-c2nc(C)n[nH]2)c(O)c2ncccc12 [Compound 2]
EC50 (THP-1 cells): > 50000 nM
Shift (fold) ([1]; CaCl2 (3 mM) vs WT): 1.0 fold
Shift (fold) ([1]; CuCl2 (5 μM) vs WT): 0.9 fold
Shift (fold) ([1]; FeCl2 (10 μM) vs WT): 2.4 fold
Shift (fold) ([1]; MgCl2 (1 mM) vs WT): 1.1 fold
Shift (fold) ([1]; MnCl2 (10 μM) vs WT): 0.8 fold
EC50 [1, 9]: 1300 ± 60 nM
EC50 [1, 10]: 1300 ± 60 nM
EC50 [1, 11]: 900 ± 20 nM
EC50 [1, 12]: 1200 ± 50 nM
EC50 [1, 13]: 1200 ± 40 nM
EC50 [1, 14]: 1400 ± 70 nM
EC50 [1, 15]: 700 ± 60 nM
EC50 [1, 16]: 800 ± 50 nM
EC50 [1, 17]: 1400 ± 90 nM
EC50 [1, 18]: 800 ± 50 nM
EC50 [1, 19]: 790 nM
Shift (fold) ([1]; ZnCl2 (200 μM) vs WT): 19.7 fold
Job's plot intercept, molar fraction (compound to Zn^2+) [2]: 0.31
EC50 [3, 20]: 100 ± 10 nM
EC50 [3, 21]: 200 ± 40 nM
EC50 [3, 22]: 180 nM
Shift ([3]; FeCl2 (100 μM) vs WT): 6.8 fold
Shift ([3]; ZnCl2 (100 μM) vs WT): 265.7 fold
EC50 [4]: 600 nM
Concentration in which promastigotes were unable to grow ([5]; after 270 days in culture, start 1 μM): ≥ 10 µM
Development of resistance in L. donovani promastigotes ([5]; stepwise increasing concentrations over a 9-month period): could not develop any resistance
Shift of EC50 for HepG2 cells by ZnCl2 (HepG2 cells; 100 μM ZnCl2): 7 fold
EC50 (HepG2 cells; HepG2, read-out: EC50 for HepG2 cells, absence of exogenous ZnCl2): 47800 ± 3600 nM
EC50 (HepG2 cells; HepG2, read-out: HepG2 EC50): 15900 nM

EC50 (THP-1 cells): > 16000 nM
Job's plot intercept, molar fraction (compound to Zn^2+) [2]: 0.35
EC50 [3, 20]: 100 ± 4 nM
EC50 [3, 21]: 200 ± 10 nM
EC50 [3, 22]: 220 nM
EC50 [4]: 200 nM
EC50 (HepG2 cells; HepG2, read-out: HepG2 EC50): 16100 nM
Compound: CC(NC(=O)c1ncc2cccnc2c1O)c1ccc(F)cc1 (stereo not drawn) [Compound 3]
Shift (fold) ([1]; CaCl2 (3 mM) vs WT): 0.9 fold
Shift (fold) ([1]; CuCl2 (5 μM) vs WT): 1.1 fold
Shift (fold) ([1]; FeCl2 (10 μM) vs WT): 3.7 fold
Shift (fold) ([1]; MgCl2 (1 mM) vs WT): 0.9 fold
Shift (fold) ([1]; MnCl2 (10 μM) vs WT): 1.3 fold
EC50 [1, 9]: 700 ± 40 nM
EC50 [1, 10]: 800 ± 60 nM
EC50 [1, 11]: 700 ± 50 nM
EC50 [1, 12]: 1010 ± 40 nM
EC50 [1, 13]: 800 ± 100 nM
EC50 [1, 14]: 800 ± 50 nM
EC50 [1, 15]: 900 ± 30 nM
EC50 [1, 16]: 800 ± 50 nM
EC50 [1, 17]: 800 ± 50 nM
EC50 [1, 18]: 500 ± 30 nM
EC50 [1, 19]: 520 nM
Shift (fold) ([1]; ZnCl2 (200 μM) vs WT): 12.0 fold
Shift ([3]; FeCl2 (100 μM) vs WT): 1.9 fold
Shift ([3]; ZnCl2 (100 μM) vs WT): 120.1 fold

Compound: [Cl][Cu][Cl] [CuCl2]
Maximum concentration of metal salt having a minimal impact on cell growth ([1]; T. brucei): 5 µM

Compound: NCCCC(N)(C(=O)O)C(F)F (stereo not drawn) [DFMO, difluoromethylornithine, reference compound]
Effect of exogenous divalent cations, including Fe^2+ and Zn^2+, on potency against T. brucei ([1]; control): failed to alter the potency
EC50 [1, 23]: 39500 ± 900 nM
Cell-free FluoZin-3 fluorescence (competition for Zn^2+ binding) [6]: did not affect the fluorescence levels

EC50 [1, 23]: 16800 ± 1400 nM
Compound: [Cl][Fe][Cl] [FeCl2]
Maximum concentration of metal salt having a minimal impact on cell growth [1]: 10 µM
Tolerated concentration of exogenous metal salt [3]: 100 µM

Compound: [Cl-].[Cl-].[Mg+2] [MgCl2]
Maximum concentration of metal salt having a minimal impact on cell growth ([1]; T. brucei): 1000 µM

Compound: [Cl][Mn][Cl] [MnCl2]
Maximum concentration of metal salt having a minimal impact on cell growth ([1]; T. brucei): 10 µM

Compound: c1ccc(CN(CCN(Cc2ccccn2)Cc2ccccn2)Cc2ccccn2)nc1 [TPEN, N,N,N′,N′-tetrakis(2-pyridylmethyl)ethane-1,2-diamine]
EC50 ([1]; Trypanosoma brucei, read-out: EC50 against bloodstream-form T. brucei, substance alone (Fig. S2), mean ± SEM): 4100 ± 900 nM
Intracellular zinc level (FluoZin-3 fluorescence) [7]: decrease in fluorescence
Cell-free FluoZin-3 fluorescence (competition for Zn^2+ binding) [6]: reduction in the level of fluorescence
Inhibition of L. donovani in vitro (L. donovani): inhibit
Intracellular zinc level (FluoZin-3 fluorescence) [8]: decrease in fluorescence

Compound: [Cl-].[Cl-].[Zn+2] [ZnCl2]
Maximum concentration of metal salt having a minimal impact on cell growth [1]: 200 µM
EC50 [1, 23]: 619000 ± 12600 nM
Tolerated concentration of exogenous metal salt [3]: 100 µM
Tolerated concentration of exogenous metal salt (HepG2 cells; HepG2 cells): 100 µM

Compound: CC(=O)N(O)CCCCCNC(=O)CCC(=O)N(O)CCCCCNC(=O)CCC(=O)N(O)CCCCCN [deferoxamine]
Growth inhibition of L. major in vitro (L. major): inhibits the growth
Growth inhibition of T. brucei in vitro (T. brucei): inhibit the growth
Growth inhibition of L. donovani in vitro (L. donovani): inhibit the growth
